Laboratory results published in ChEMBL document CHEMBL1201862, “PubChem BioAssay data set” (2004).
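Where inhibition never reached the appropriate level, the endpoint shown equals the highest concentration tested. Otherwise, values were interpolated linearly from a five-concentration, 48-hour dose response in 96-well plates. Abbreviation: GI50, concentration required for 50% inhibition of growth.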 Activity calls are given as the source filed them. Rule as the data show it: active = GI50 up to about 1.1 µM and inactive = higher. Where a SMILES comes first, the peptide text is derived from it. [ ]: non-standard residue; d: D form. The star is where a group is joined. ξ: configuration not given here. NMeF = CN[CH](Cc1ccccc1)C(=O)O; ξNMe2Val = CC(C)C(C(=O)*)N(C)C; NMeV = CN[CH](C(=O)O)C(C)C; OtBu = CC(C)(C)O*

How the values were obtained:
Experiment in all cases: NCI-60 cell line screen, 48 h
786-0 = system: 786-0
A549 = system: A549
HL-60 = system: HL-60
KM12 = system: KM12
M14 = system: M14
M19-MEL = system: M19-MEL
Malme-3M = system: Malme-3M
OVCAR-3 = system: OVCAR-3
OVCAR-4 = system: OVCAR-4
RXF 393 = system: RXF 393
SF-295 = system: SF-295
SF-539 = system: SF-539
SNB-75 = system: SNB-75
U-251 = system: U-251
UO-31 = system: UO-31
HOP-92 = system: HOP-92
LOX IMVI = system: LOX IMVI
SNB-19 = system: SNB-19
NCI-H522 = system: NCI-H522

Compound	GI50 (786-0)	GI50 (A549)	GI50 (HL-60)	GI50 (KM12)	GI50 (M14)	GI50 (M19-MEL)	GI50 (Malme-3M)	GI50 (OVCAR-3)	GI50 (OVCAR-4)	GI50 (RXF 393)	GI50 (SF-295)	GI50 (SF-539)	GI50 (SNB-75)	GI50 (U-251)	GI50 (UO-31)	GI50 (HOP-92)	GI50 (LOX IMVI)	GI50 (SNB-19)	GI50 (NCI-H522)
N#[N+]c1ccccc1Sc1ccc(Cl)cc1	> 100 µM (inactive)	> 100 µM (inactive)	94 µM (inactive)	> 100 µM (inactive)	> 100 µM (inactive)	> 100 µM (inactive)	> 100 µM (inactive)	> 100 µM (inactive)	> 100 µM (inactive)	32.2 µM (inactive)	> 100 µM (inactive)	> 100 µM (inactive)	> 100 µM (inactive)	> 100 µM (inactive)	> 100 µM (inactive)	–	–	–	–
C[C@]12CC(C=O)C(=O)C(O)=C1CC[C@@H]1C2CC[C@@]2(C)C1CC[C@]2(C)O (some centres not stated)	16.3 µM (inactive)	57.4 µM (inactive)	15.8 µM (inactive)	25.5 µM (inactive)	16.8 µM (inactive)	20.1 µM (inactive)	5.06 µM (inactive)	24.8 µM (inactive)	13.2 µM (inactive)	21.4 µM (inactive)	27.1 µM (inactive)	18.5 µM (inactive)	20.6 µM (inactive)	20.4 µM (inactive)	21.3 µM (inactive)	16 µM (inactive)	11.5 µM (inactive)	25.2 µM (inactive)	–
COC(=O)C12C3C4C1C1C2C3C41I (configuration not stated)	> 100 µM (inactive)	> 100 µM (inactive)	> 100 µM (inactive)	–	> 100 µM (inactive)	> 100 µM (inactive)	> 100 µM (inactive)	> 100 µM (inactive)	> 100 µM (inactive)	> 100 µM (inactive)	> 100 µM (inactive)	> 100 µM (inactive)	–	> 100 µM (inactive)	> 100 µM (inactive)	> 100 µM (inactive)	–	> 100 µM (inactive)	–
NC(=O)N/N=C(\CC1OC(=O)c2ccccc21)c1ccc([N+](=O)[O-])cc1 (configuration not stated)	17.6 µM (inactive)	38.7 µM (inactive)	26.3 µM (inactive)	32.5 µM (inactive)	34 µM (inactive)	26.5 µM (inactive)	25.3 µM (inactive)	49.1 µM (inactive)	39.5 µM (inactive)	14.9 µM (inactive)	68.4 µM (inactive)	21.5 µM (inactive)	27.1 µM (inactive)	17.5 µM (inactive)	76.6 µM (inactive)	–	17 µM (inactive)	20.7 µM (inactive)	–
CC1=CC2CCC1(C)C/C2=C(/C)OC=O (configuration not stated)	> 100 µM (inactive)	> 100 µM (inactive)	> 100 µM (inactive)	> 100 µM (inactive)	> 100 µM (inactive)	> 100 µM (inactive)	–	> 100 µM (inactive)	> 100 µM (inactive)	> 100 µM (inactive)	> 100 µM (inactive)	> 100 µM (inactive)	> 100 µM (inactive)	> 100 µM (inactive)	> 100 µM (inactive)	> 100 µM (inactive)	> 100 µM (inactive)	> 100 µM (inactive)	> 100 µM (inactive)
CCc1cc(Cc2cc(Cl)c(NC(=O)C(=O)C3NC(=O)NC3=O)c(CC)c2)cc(Cl)c1NC(=O)C(=O)C1NC(=O)NC1=O (configuration not stated)	42.7 µM (inactive)	75 µM (inactive)	35.2 µM (inactive)	> 100 µM (inactive)	48.5 µM (inactive)	51.3 µM (inactive)	> 100 µM (inactive)	36.8 µM (inactive)	> 100 µM (inactive)	22.9 µM (inactive)	51.4 µM (inactive)	35.1 µM (inactive)	30.9 µM (inactive)	17.1 µM (inactive)	> 100 µM (inactive)	> 100 µM (inactive)	31.8 µM (inactive)	36.9 µM (inactive)	–
CCn1c(=O)c2ccccc2n2c(=O)c3cc4ccccc4cc3nc12	37.3 µM (inactive)	> 100 µM (inactive)	91.8 µM (inactive)	> 100 µM (inactive)	> 100 µM (inactive)	> 100 µM (inactive)	> 100 µM (inactive)	> 100 µM (inactive)	–	15.2 µM (inactive)	28.3 µM (inactive)	62.7 µM (inactive)	27.4 µM (inactive)	> 100 µM (inactive)	> 100 µM (inactive)	–	> 100 µM (inactive)	52.1 µM (inactive)	98.9 µM (inactive)
CC(C)N1CCC2(CC1)NNc1ncccc1-n1cccc12	> 100 µM (inactive)	> 100 µM (inactive)	> 100 µM (inactive)	> 100 µM (inactive)	> 100 µM (inactive)	> 100 µM (inactive)	> 100 µM (inactive)	> 100 µM (inactive)	> 100 µM (inactive)	–	> 100 µM (inactive)	> 100 µM (inactive)	> 100 µM (inactive)	> 100 µM (inactive)	> 100 µM (inactive)	–	> 100 µM (inactive)	> 100 µM (inactive)	> 100 µM (inactive)
CC(=O)NC1=C(NCC(C)C)C(=O)c2ccccc2C1=O	14.6 µM (inactive)	54.3 µM (inactive)	2.76 µM (inactive)	42.9 µM (inactive)	18.2 µM (inactive)	18.7 µM (inactive)	18.9 µM (inactive)	16.6 µM (inactive)	69.2 µM (inactive)	12.5 µM (inactive)	37.9 µM (inactive)	17.3 µM (inactive)	16.9 µM (inactive)	40.2 µM (inactive)	18 µM (inactive)	14.3 µM (inactive)	15.5 µM (inactive)	38.3 µM (inactive)	–
COC(=O)C1Cc2c(n(Cc3ccccc3)c3ccccc23)C(CCC(=O)O)N1C(C)C (configuration not stated)	> 100 µM (inactive)	> 100 µM (inactive)	> 100 µM (inactive)	> 100 µM (inactive)	> 100 µM (inactive)	> 100 µM (inactive)	> 100 µM (inactive)	> 100 µM (inactive)	> 100 µM (inactive)	–	> 100 µM (inactive)	> 100 µM (inactive)	> 100 µM (inactive)	> 100 µM (inactive)	> 100 µM (inactive)	> 100 µM (inactive)	> 100 µM (inactive)	> 100 µM (inactive)	> 100 µM (inactive)
Cc1ccc(S(=O)(=O)N2CCCCC2CCO)cc1 (configuration not stated)	> 100 µM (inactive)	> 100 µM (inactive)	> 100 µM (inactive)	> 100 µM (inactive)	> 100 µM (inactive)	> 100 µM (inactive)	> 100 µM (inactive)	> 100 µM (inactive)	> 100 µM (inactive)	> 100 µM (inactive)	> 100 µM (inactive)	> 100 µM (inactive)	> 100 µM (inactive)	> 100 µM (inactive)	> 100 µM (inactive)	> 100 µM (inactive)	–	> 100 µM (inactive)	0.0342 µM (active)
CCC(Oc1ccc(OC)c2c1C(=O)CCC2)C(=O)O (configuration not stated)	> 100 µM (inactive)	> 100 µM (inactive)	> 100 µM (inactive)	> 100 µM (inactive)	> 100 µM (inactive)	> 100 µM (inactive)	> 100 µM (inactive)	> 100 µM (inactive)	> 100 µM (inactive)	> 100 µM (inactive)	> 100 µM (inactive)	> 100 µM (inactive)	> 100 µM (inactive)	> 100 µM (inactive)	> 100 µM (inactive)	–	> 100 µM (inactive)	> 100 µM (inactive)	> 100 µM (inactive)
NCCCSCC(=O)O	> 100 µM (inactive)	> 100 µM (inactive)	–	> 100 µM (inactive)	–	> 100 µM (inactive)	> 100 µM (inactive)	> 100 µM (inactive)	> 100 µM (inactive)	> 100 µM (inactive)	> 100 µM (inactive)	> 100 µM (inactive)	> 100 µM (inactive)	> 100 µM (inactive)	> 100 µM (inactive)	> 100 µM (inactive)	–	> 100 µM (inactive)	> 100 µM (inactive)
O=c1cc(-c2ccccc2)oc2cc(OCCCCCCCCCCOc3ccc4c(=O)cc(-c5ccccc5)oc4c3)ccc12	> 100 µM (inactive)	> 100 µM (inactive)	> 100 µM (inactive)	> 100 µM (inactive)	> 100 µM (inactive)	> 100 µM (inactive)	> 100 µM (inactive)	> 100 µM (inactive)	> 100 µM (inactive)	–	> 100 µM (inactive)	> 100 µM (inactive)	56.1 µM (inactive)	> 100 µM (inactive)	–	> 100 µM (inactive)	–	> 100 µM (inactive)	> 100 µM (inactive)
O=C1C2[C@@H](C(=O)N1c1ccc(Br)cc1)C13C(=CC2([N+](=O)[O-])[C@@H]2C(=O)N(c4ccc(Br)cc4)C(=O)[C@@H]21)c1ccccc1N3c1ccccc1 (some centres not stated)	13.7 µM (inactive)	> 100 µM (inactive)	> 100 µM (inactive)	> 100 µM (inactive)	> 100 µM (inactive)	> 100 µM (inactive)	> 100 µM (inactive)	> 100 µM (inactive)	–	> 100 µM (inactive)	> 100 µM (inactive)	> 100 µM (inactive)	> 100 µM (inactive)	> 100 µM (inactive)	18.9 µM (inactive)	> 100 µM (inactive)	> 100 µM (inactive)	> 100 µM (inactive)	> 100 µM (inactive)
CC(C)C(C(=O)N(C)C(Cc1ccccc1)C(=O)N(C)C(C(=O)N(C)C(C(=O)N1CCCC1C(=O)OC(C)(C)C)C(C)C)C(C)C)N(C)C (configuration not stated) (ξNMe2Val-[NMeF][NMeV][NMeV]P-OtBu; configuration not given here)	52.7 µM (inactive)	71.1 µM (inactive)	37.2 µM (inactive)	40.6 µM (inactive)	20 µM (inactive)	78.3 µM (inactive)	> 10 µM (inactive)	62.5 µM (inactive)	–	–	60.8 µM (inactive)	26.1 µM (inactive)	–	> 10 µM (inactive)	86.7 µM (inactive)	–	22.9 µM (inactive)	58.3 µM (inactive)	17.4 µM (inactive)
